Measured values taken from PubChem BioAssay AID1963825 (Molecular Pharmacology Branch, DTP, NCI, 2024).

Assay: Anticancer human tumor 997537-175-T-J1-PDC patient-derived colon adenocarcinoma cell line growth inhibition [POLQ]
Conditions: 997537-175-T-J1-PDC complex spheroid viability, combination with POLQ inhibitors; for IC50: curve of first compound; for viability, T/C: stronger effect = lower value
Procedure, shortened: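 PDC + HUVEC + MSC complex spheroids; POLQ inhibitors ± partner drugs; top conc. at/near clinical Cmax, else 10 microM (SN-38 1 microM), half-log dilutions; 37 degrees C, 5% CO2.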

[1] = second compound 0.0316 µM, first compound 0.0316 µM
[2] = second compound 0.0316 µM, first compound 0.1 µM
[3] = second compound 0.0316 µM, first compound 0.316 µM
[4] = second compound 0.0316 µM, first compound 1 µM
[5] = second compound 0.0316 µM, first compound 3.16 µM
[6] = second compound 0.0316 µM, first compound 10 µM
[7] = second compound 0.1 µM, first compound 0.0316 µM
[8] = second compound 0.1 µM, first compound 0.1 µM
[9] = second compound 0.1 µM, first compound 0.316 µM
[10] = second compound 0.1 µM, first compound 1 µM
[11] = second compound 0.1 µM, first compound 3.16 µM
[12] = second compound 0.1 µM, first compound 10 µM
[13] = second compound 0.316 µM, first compound 0.0316 µM
[14] = second compound 0.316 µM, first compound 0.1 µM
[15] = second compound 0.316 µM, first compound 0.316 µM
[16] = second compound 0.316 µM, first compound 1 µM
[17] = second compound 0.316 µM, first compound 3.16 µM
[18] = second compound 0.316 µM, first compound 10 µM
[19] = second compound 1 µM, first compound 0.0316 µM
[20] = second compound 1 µM, first compound 0.1 µM
[21] = second compound 1 µM, first compound 0.316 µM
[22] = second compound 1 µM, first compound 1 µM
[23] = second compound 1 µM, first compound 3.16 µM
[24] = second compound 1 µM, first compound 10 µM
[25] = second compound 3.16 µM, first compound 0.0316 µM
[26] = second compound 3.16 µM, first compound 0.1 µM
[27] = second compound 3.16 µM, first compound 0.316 µM
[28] = second compound 3.16 µM, first compound 1 µM
[29] = second compound 3.16 µM, first compound 3.16 µM
[30] = second compound 3.16 µM, first compound 10 µM
[31] = second compound 10 µM, first compound 0.0316 µM
[32] = second compound 10 µM, first compound 0.1 µM
[33] = second compound 10 µM, first compound 0.316 µM
[34] = second compound 10 µM, first compound 1 µM
[35] = second compound 10 µM, first compound 3.16 µM
[36] = second compound 10 µM, first compound 10 µM
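Further: luminescence signal used as a surrogate for viable cells; spheroids exposed to drugs for seven days before readout.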

With `CCc1cc2c(N3CCc4c(cc(Cn5ccnc5)cc4-c4cn(C)nc4C(F)(F)F)C3=O)cc(C)nc2c(OC)n1` + Cc1cccc(N(C)C(=O)C2C(O)CCN2c2nc(C)cc(C(F)(F)F)c2C#N)c1 the IC50 (second compound 0.0316 µM) was > 10 µM, the IC50 (second compound 0.1 µM) was > 10 µM and the IC50 (second compound 0.316 µM) was > 10 µM. The IC50 (second compound 1 µM) was > 10 µM, the IC50 (second compound 3.16 µM) was > 10 µM and the IC50 (second compound 10 µM) was > 10 µM. The viability, T/C [1] was 109%, the viability, T/C [2] was 113% and the viability, T/C [3] was 97%. For the same compound, the viability, T/C [4] was 82.8%, the viability, T/C [5] was 87.1% and the viability, T/C [6] was 52.4%. For the same compound, the viability, T/C [7] was 108%, the viability, T/C [8] was 105% and the viability, T/C [9] was 84.1%. For the same compound, the viability, T/C [10] was 90.6%, the viability, T/C [11] was 75.2% and the viability, T/C [12] was 74.6%. It also gave a viability, T/C [13] of 83.5%, a viability, T/C [14] of 103% and a viability, T/C [15] of 82.6%. It also gave a viability, T/C [16] of 84.1%, a viability, T/C [17] of 82.9% and a viability, T/C [18] of 60.9%. For the same compound, the viability, T/C [19] was 91.2%, the viability, T/C [20] was 91.7% and the viability, T/C [21] was 85.9%. For the same compound, the viability, T/C [22] was 86.9%, the viability, T/C [23] was 111% and the viability, T/C [24] was 63.3%. For the same compound, the viability, T/C [25] was 97.1%, the viability, T/C [26] was 115% and the viability, T/C [27] was 92.2%. It also gave a viability, T/C [28] of 82.7%, a viability, T/C [29] of 61.6% and a viability, T/C [30] of 59.5%. The viability, T/C [31] was 102%, the viability, T/C [32] was 91.8% and the viability, T/C [33] was 105%. The viability, T/C [34] was 77.2%, the viability, T/C [35] was 74% and the viability, T/C [36] was 53.6%.
In the case of `COc1cc2cc(C(=O)CCC(=O)O)sc2cc1OC` + Cc1cccc(N(C)C(=O)C2C(O)CCN2c2nc(C)cc(C(F)(F)F)c2C#N)c1, the IC50 (second compound 0.0316 µM) is reported as > 10 µM, the IC50 (second compound 0.1 µM) is reported as > 10 µM and the IC50 (second compound 0.316 µM) is reported as > 10 µM. For the same compound, the IC50 (second compound 1 µM) was > 10 µM, the IC50 (second compound 3.16 µM) was > 10 µM and the IC50 (second compound 10 µM) was > 10 µM. The viability, T/C [1] was 110%, the viability, T/C [2] was 102% and the viability, T/C [3] was 99.3%. For the same compound, the viability, T/C [4] was 111%, the viability, T/C [5] was 98.4% and the viability, T/C [6] was 88.3%. It also gave a viability, T/C [7] of 98.7%, a viability, T/C [8] of 120% and a viability, T/C [9] of 94.7%. The viability, T/C [10] was 105%, the viability, T/C [11] was 99.3% and the viability, T/C [12] was 93.3%. For the same compound, the viability, T/C [13] was 105%, the viability, T/C [14] was 97.7% and the viability, T/C [15] was 87.5%. The viability, T/C [16] was 80.8%, the viability, T/C [17] was 98.6% and the viability, T/C [18] was 93.6%. The viability, T/C [19] was 108%, the viability, T/C [20] was 90.5% and the viability, T/C [21] was 105%. It also gave a viability, T/C [22] of 102%, a viability, T/C [23] of 101% and a viability, T/C [24] of 92.8%. It also gave a viability, T/C [25] of 94.5%, a viability, T/C [26] of 121% and a viability, T/C [27] of 90.5%. For the same compound, the viability, T/C [28] was 96.2%, the viability, T/C [29] was 115% and the viability, T/C [30] was 97.8%. It also gave a viability, T/C [31] of 98%, a viability, T/C [32] of 104% and a viability, T/C [33] of 107%. For the same compound, the viability, T/C [34] was 105%, the viability, T/C [35] was 118% and the viability, T/C [36] was 87.3%.
For `O=C(Nc1ccc(O)c(NS(=O)(=O)c2ccc(F)cc2)c1)c1ccc(-c2ccccc2)cc1` + Cc1cccc(N(C)C(=O)C2C(O)CCN2c2nc(C)cc(C(F)(F)F)c2C#N)c1, the IC50 (second compound 0.0316 µM) was > 10 µM, the IC50 (second compound 0.1 µM) was > 10 µM and the IC50 (second compound 0.316 µM) was > 10 µM. The IC50 (second compound 1 µM) was > 10 µM, the IC50 (second compound 3.16 µM) was > 10 µM and the IC50 (second compound 10 µM) was > 10 µM. The viability, T/C [1] was 105%, the viability, T/C [2] was 105% and the viability, T/C [3] was 99.4%. For the same compound, the viability, T/C [4] was 100%, the viability, T/C [5] was 101% and the viability, T/C [6] was 72.7%. It also gave a viability, T/C [7] of 107%, a viability, T/C [8] of 99.4% and a viability, T/C [9] of 93.9%. The viability, T/C [10] was 103%, the viability, T/C [11] was 91% and the viability, T/C [12] was 98.1%. For the same compound, the viability, T/C [13] was 105%, the viability, T/C [14] was 91.9% and the viability, T/C [15] was 111%. For the same compound, the viability, T/C [16] was 103%, the viability, T/C [17] was 97.5% and the viability, T/C [18] was 92.5%. For the same compound, the viability, T/C [19] was 93.7%, the viability, T/C [20] was 84.4% and the viability, T/C [21] was 94.9%. It also gave a viability, T/C [22] of 87.3%, a viability, T/C [23] of 111% and a viability, T/C [24] of 98.6%. The viability, T/C [25] was 97.2%, the viability, T/C [26] was 106% and the viability, T/C [27] was 93%. The viability, T/C [28] was 80.6%, the viability, T/C [29] was 106% and the viability, T/C [30] was 91.7%. The viability, T/C [31] was 96.8%, the viability, T/C [32] was 101% and the viability, T/C [33] was 108%. The viability, T/C [34] was 93%, the viability, T/C [35] was 89.5% and the viability, T/C [36] was 105%.
